US11033559B2, “Leukocyte infiltration promoting agent and antitumor immunostimulatory agent” (OSAKA UNIVERSITY, priority 2015, dated 2021)

Assays:
Type in all cases: in vivo
LLC cells = assay: Antitumor effect of combined use of LPA and immune checkpoint inhibitor; settings: LLC-bearing mice; LPA 3 mg/kg i.p. day 6 to day 20; anti-PD-1 antibody 100 μg/mouse i.p. on days 7, 9, 11, 14, 16, 18; volume until day 21
Protocol: LLC cells (1×10^6 cells in 100 μL PBS per animal) were subcutaneously injected into C57BL/6 NCrSlc mice aged 8 weeks (females) in the same manner as in Reference Example 1. On day 6 post-inoculation, LLC-bearing mice that had developed a tumor with a volume of 30 to 40 mm^3 (volume=length×width×height×0.5) were selected. The mice were divided into four groups: a control group, an LPA administration group, an anti-PD-1 antibody administration group and an LPA plus anti-PD-1 antibody administration group, and subjected to the experiment. To the LPA administration group and to the LPA plus anti-PD-1 antibody administration group, LPA (3 mg/kg/100 μL) was intraperitoneally administered consecutively from day 6 through day 20 post-inoculation of the tumor cells. In the anti-PD-1 antibody administration group and in the LPA plus anti-PD-1 antibody administration group, anti-PD-1antibody therapy was started from day 7 post-inoculation of the tumor cells. Specifically, an anti-mouse PD-1 antibody (Clone: RMP1-14, BioXcell, BE0146) was intraperitoneally administered at a dose of 100 μg/mouse on day 7, day 9, day 11, day 14, day 16 and day 18 post-inoculation of the tumor cells. […] Tumor volume was measured over time until day 21.

[1] = system: B16-BL6 mouse melanoma cell line; assay: Tumor growth inhibition, subcutaneous tumor formed from melanoma cells; settings: B16-BL6-bearing mice; LPA 3 mg/kg i.p. once daily for seven days; 5-FU 100 mg/kg i.p. once weekly, 2 times
Protocol: LLC cells (1×10^6 cells in 100 μL PBS per animal) were subcutaneously injected into C57BL/6 NCrSlc mice aged 8 weeks (females) in the same manner as in Reference Example 1. An LPA solution for administration was prepared in the same manner as in Reference Example 1. 5-FU (Kyowa Hakko Kirin Co., Ltd.) was used as an anticancer drug. 5-FU was prepared as a solution in physiological saline (Otsuka Pharmaceutical Co., Ltd.). On day 7 post-inoculation, LLC-bearing mice that had developed a tumor with a volume of 30 to 50 mm^3 were selected and subjected to the experiment. The mice were assigned to three groups: a control group, a 5-FU group and an LPA group (n=3 per group). After grouping, LPA (3 mg/kg/100 μL), 5-FU (100 mg/kg/100 μL) or PBS (100 μL) was intraperitoneally administered to the mice. The administration of LPA or PBS was performed once daily for consecutive seven days. The administration of 5-FU was performed once weekly, 2 times in total (day 7 and day 14 post-inoculation). Tumor size was measured over time after the start of the administration. Tumor volume was calculated by the following formula: length×width×height×0.5.
The B16-BL6 mouse melanoma cell line was used. B16-BL6 cells (1×10^6 cells in […] PBS per animal) were subcutaneously injected into C57BL/6 NCrSlc mice aged 8 weeks (females). […]

[2] = system: luminal surface of tumor blood vessels in LLC tumor-bearing mice; assay: Structural changes in lumina of tumor blood vessels (scanning electron microscopy); settings: 3 mg/kg intraperitoneally, 24 hours after administration, scanning electron microscope
Protocol: LLC cells were subcutaneously inoculated into C57BL/6 NCrSlc mice aged 8 weeks (females, SLC, Inc.) in the same manner as in Reference Example 1. An LPA solution for administration was prepared in the same manner as in Reference Example 1. LLC-bearing mice on day 9 post-inoculation (animals with a tumor volume of 60 to 80 mm^3) were subjected to the experiment. The mice were divided into two groups: a control group and an LPA group (n=3 per group). After grouping, LPA (3 mg/kg/100 μL) or PBS (100 μL) was intraperitoneally administered to the mice. At 24 hours after LPA or PBS administration, the mice were fixed by perfusion with a fixative under anesthesia with pentobarbital (Kyoritsu Seiyaku Corporation). The fixative used was 0.1 M phosphate buffer (pH 7.4) containing 2% formaldehyde and 2.5% glutaraldehyde. After the fixation by perfusion, the tumors were harvested, immersed in the same fixative as used for perfusion, and shaken at 4° C. overnight. The tumors were further immersed in 0.1 M phosphate buffer (pH 7.4) containing 1% osmium tetroxide and 0.5% potassium ferrocyanide for fixation. The tumors were dehydrated in an ascending series of ethanol, then the alcohol was replaced with t-butyl alcohol, and the tumors were freeze-dried.

LLC tumor in mice = assay: Drug (doxorubicin) delivery from tumor blood vessels to tumor tissues after LPA administration; settings: LLC-bearing mice, LPA 3 mg/kg i.p., doxorubicin 1.5 mg/kg via tail vein 24 hours later, tumors harvested at 20 minutes
Source text: As is commonly known, low blood flow and vascular hyperpermeability are the hallmarks of tumors. These cause an increase in tumor interstitial fluid pressure, leading to no difference in osmotic pressure between the tumor parenchyma and the blood vessels. This condition is a great obstacle to substance penetration from the vascular lumen to tumor tissues. Based on the above results showing that LPA administration induces a dense network formation of tumor blood vessels with a smooth luminal surface, it was hypothesized that LPA administration would improve drug penetration from tumor blood vessels. To examine drug penetration into tumors after LPA administration, the following experiments were conducted.
LLC cells were subcutaneously inoculated into C57BL/6 NCrSlc mice aged 8 weeks (females, SLC, Inc.) in the same manner as in Reference Example 1. An LPA solution for administration was prepared in the same manner as in Reference Example 1. On day 11 post-inoculation, LLC-bearing mice that had developed a tumor with a volume of 100 to 120 mm^3 were selected. The mice were divided into two groups: a control group and an LPA group (n=3 per group). After grouping, LPA (3 mg/kg/100 μL) or PBS (100 μL) was intraperitoneally administered to the mice. […] Doxorubicin is a fluorescent anticancer drug that can be detected at an excitation wavelength of 480 nm and a measurement wavelength of 575 nm. […]

Substance: lysophosphatidic acid [LPA]
- inhibition of tumor growth (tumor volume) versus control group (LLC cells): slightly inhibited tumor growth
- inhibitory effect on growth of the tumor formed from melanoma cells [1]: comparable to that of 5-FU
- luminal surface of tumor blood vessels [2]: very smooth luminal surface
- penetration of doxorubicin into tumors (LLC tumor in mice): delivery of doxorubicin from tumor blood vessels to the deep part of the tumor was observed
